Data as given in patent US20250197485A1, “Anti-ED-A Antibodies for the Treatment of Pulmonary Hypertension” (Universitätsklinikum Jena, priority 2022, published 2025).

Legend:
MCT-induced PH [1] = assay: Histological evaluation of lung tissue damage (sum-score) in mouse model of MCT-induced PH; format: in vivo, C57BL/6 mice; conditions: MAC p=0.020; F8 IgG p=0.005; KSF IgG p=0.907
Source text: PH was induced in C57BL/6 mice (bodyweight: 25-30 g). The animals were obtained from ZET facility (Zentale Experimentelle Tierhaltung) of the University Hospital Jena (UKJ, Jena, Germany). Prior to PH induction, mice were allowed to acclimatize for at least 7 days with ad libitum access to food and water as well as controlled light/dark cycles. 41 animals were investigated divided into the following five experimental groups: • 1) sham induced controls (n=7) • 2) MCT induced PH (n=12) • 3) MCT induced PH+MAC (n=6) • 4) MCT induced PH+F8 IgG (n=8) • 5) MCT induced PH+KSF IgG (n=8) For PH induction, the Monocrotaline (MCT, Carl Roth, Germany) method was used. The sham induced controls were injected with 30 μl NaCl not containing MCT at day 1 (single dose; intraperitoneally, i.p.). […] The other 4 experimental groups were injected with MCT to induce PH (single dose; intraperitoneally, i.p.; 60 mg/kg body weight; volume 30 μl). Animals in the MCT induced PH+MAC group received the drug (Macitentan, Actelion Pharmaceuticals Ltd.) from day 14 to day 28 (once daily; per os; 15 mg/kg body weight). Animals in the MCT induced PH+F8 IgG group received F8 IgG 3 times on day 14, 16 and 18 (intravenously, i.v.; 195 μg/injection; volume 200 μl). Similarly, animals in the MCT induced PH+KSF IgG group received KSF IgG 3 times on day 14, 16 and 18 (intravenously, i.v.; 195 μg/injection; volume 120 μl). Microscopic evaluation to assess histopathological lung tissue damage was performed using H&E as well as Sirius Red stained lung tissue sections according to a defined sum-score (between 0 and 12; maximum score value=highest level of tissue damage) integrating certain histological alterations frequently occurring in PH: percentage of atelectasis area, percentage of emphysema area, degree of media hypertrophy of peribronchial arteries, presence of perivascular cellular edema of peribronchial arteries, and degree of media hypertrophy of small arteries. Statistical analyses were performed using IBM SPSS statistical software, version 28.0 (IBM SPSS Statistics for Windows. Armonk, NY, USA). Data are expressed as mean±standard deviation. Kruskal-Wallis and Mann-Whitney-U test were used to test for significant differences between the different groups. A p-value<0.05 as statistically significant.

MCT-induced PH [2] = assay: Right heart catheterization (RVPsys) in mouse model of MCT-induced PH; format: in vivo, C57BL/6 mice; conditions: day 28; F8 IgG 195 μg i.v. day 14, 16, 18 (p=0.010); MAC 15 mg/kg per os once daily day 14-28 (n.s.)
Source text: PH was induced in C57BL/6 mice (bodyweight: 25-30 g). The animals were obtained from ZET facility (Zentale Experimentelle Tierhaltung) of the University Hospital Jena (UKJ, Jena, Germany). Prior to PH induction, mice were allowed to acclimatize for at least 7 days with ad libitum access to food and water as well as controlled light/dark cycles. 41 animals were investigated divided into the following five experimental groups: • 1) sham induced controls (n=7) • 2) MCT induced PH (n=12) • 3) MCT induced PH+MAC (n=6) • 4) MCT induced PH+F8 IgG (n=8) • 5) MCT induced PH+KSF IgG (n=8)
For PH induction, the Monocrotaline (MCT, Carl Roth, Germany) method was used.
The sham induced controls were injected with 30 μl NaCl not containing MCT at day 1 (single dose; intraperitoneally, i.p.). […] The other 4 experimental groups were injected with MCT to induce PH (single dose; intraperitoneally, i.p.; 60 mg/kg body weight; volume 30 μl). Animals in the MCT induced PH+MAC group received the drug (Macitentan, Actelion Pharmaceuticals Ltd.) from day 14 to day 28 (once daily; per os; 15 mg/kg body weight). Animals in the MCT induced PH+F8 IgG group received F8 IgG 3 times on day 14, 16 and 18 (intravenously, i.v.; 195 μg/injection; volume 200 μl). Similarly, animals in the MCT induced PH+KSF IgG group received KSF IgG 3 times on day 14, 16 and 18 (intravenously, i.v.; 195 μg/injection; volume 120 μl).
On day 28 after MCT injection, mice of all experimental groups were deeply anesthetized with a single dose of 100 mg/kg body weight ketamine and 10 mg/kg body weight Xylazin in approximately 60 μl each administered i.p.
Right heart catheterization using a 1.4 F micro conductance pressure-volume catheter (Model SPR-839; Millar Instruments Inc; PowerLab system, ADInstruments Ltd., Oxford, UK) was performed via the right vena jugularis interna to measure the systolic right ventricular pressure and thereby verify the success of the experimental setting. Mice were then sacrificed in deep anesthesia and analgesia to carry out cardiac blood collection after thoracotomy and to harvest the organs.
Statistical analyses were performed using IBM SPSS statistical software, version 28.0 (IBM SPSS Statistics for Windows. Armonk, NY, USA). Data are expressed as mean±standard deviation. Kruskal-Wallis and Mann-Whitney-U test were used to test for significant differences between the different groups. A p-value<0.05 as statistically significant.

Compound	histopathological lung tissue damage (sum-score 0 to 12) compared to the MCT-induced PH group without treatment (MCT-induced PH [1])	attenuation in RVPsys compared to the MCT-induced PH group without treatment (positive control) (MCT-induced PH [2])
CCCNS(=O)(=O)Nc1ncnc(OCCOc2ncc(Br)cn2)c1-c1ccc(Br)cc1 [MAC, Macitentan, reference compound]	significantly reduced	not significant
KSF IgG: Negative control chimaeric antibody specific for hen egg lysozyme, an irrelevant antigen; heavy chain SEQ ID NO: 15, light chain SEQ ID NO: 16 [reference compound]	No reduction	
